Assay [1] addresses T1, CD73 (Homo sapiens (Human), UniProt P21589). The class given is biochemical. The conditions noted are these: 1 mM NaH2PO4 in enzyme buffer, CD73 0.3 nM, AMP 15 uM.
Procedure: Compound serial dilutions were pre-spotted into Thermo Nunc assay plate. 50 uL CD73 enzyme buffer (CD73 purchased from R&D system=0.6 nM, 25 mM Tris, pH 7.4, 5 mM MgCl2, 1 mM NaH2PO4) was added into the assay plate and incubate for 15 mins. […] After incubation for 60 mins, the supernatant (20 uL) was transferred into 384-well NUNC plate pre-filled with 60 uL Quench buffer (80% organic and 20% water+0.1% FA) with internal standard. The plate was spun down at 4500 rpm for 20 mins, then 20 uL of supernatant was transferred to another Nunc plate prefilled with 80 uL of water. The samples were analyzed using Rapid fire.
The target in assay [2] is T1, CD73. As to the kind of experiment: MDA-MB-231 Cell Based CD73 Activity Assay (DMEM). The note with it: MDA-MB-231-GFP cells, DMEM medium with 10% human plasma, 200 uM AMP.

The structures appear in SMILES notation. A value given as a limit tells only on which side of the number the result lay.

T1 sequence (P21589 27-574): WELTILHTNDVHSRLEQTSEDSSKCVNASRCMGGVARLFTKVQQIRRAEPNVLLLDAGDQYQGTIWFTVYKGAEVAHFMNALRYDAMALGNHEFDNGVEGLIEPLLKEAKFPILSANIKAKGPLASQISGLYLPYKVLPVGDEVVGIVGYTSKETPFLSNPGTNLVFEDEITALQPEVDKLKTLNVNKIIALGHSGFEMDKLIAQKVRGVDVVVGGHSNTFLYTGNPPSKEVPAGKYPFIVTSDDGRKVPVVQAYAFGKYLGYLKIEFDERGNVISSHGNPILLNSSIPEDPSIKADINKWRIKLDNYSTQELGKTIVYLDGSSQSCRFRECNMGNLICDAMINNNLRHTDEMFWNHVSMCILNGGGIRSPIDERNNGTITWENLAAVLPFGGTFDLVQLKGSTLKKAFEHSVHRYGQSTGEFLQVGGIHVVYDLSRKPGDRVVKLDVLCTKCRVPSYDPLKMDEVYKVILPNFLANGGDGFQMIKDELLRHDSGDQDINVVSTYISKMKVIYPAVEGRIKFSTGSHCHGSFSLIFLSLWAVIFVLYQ

What is called IC50 is the point on the concentration scale where inhibition reaches its midpoint. The low end stands for inhibition by little substance, the high end for a need for much substance. In general, EC50 refers to the midpoint of the concentration-response curve. The low end stands for greater potency, the high end for weaker potency. For `O=c1[nH]cc(-c2cc(-c3cnn(C(F)F)c3)c3nccn3n2)c(=O)[nH]1` [Example 509, 5-(8-(1-(difluoromethyl)-1H-pyrazol-4-yl)imidazo[1,2-b]pyridazin-6-yl)pyrimidine-2,4(1H,3H)-dione], the IC50 in assay [1] is 0.0495 µM. This compound also registered a concentration giving a half-maximal response (EC50) in assay [2] of 0.0901 µM.
The like results for `COCCn1cc(-c2cc(-c3c[nH]c(=O)[nH]c3=O)nn3ccnc23)cn1` [Example 510, 5-(8-(1-(2-methoxyethyl)-1H-pyrazol-4-yl)imidazo[1,2-b]pyridazin-6-yl)pyrimidine-2,4(1H,3H)-dione] were, in that order, 0.246 µM and 0.382 µM.
`O=c1[nH]cc(-c2cc(-c3cnn(CCN4CCOCC4)c3)c3nccn3n2)c(=O)[nH]1` [Example 511, 5-(8-(1-(2-morpholinoethyl)-1H-pyrazol-4-yl)imidazo[1,2-b]pyridazin-6-yl)pyrimidine-2,4(1H,3H)-dione] came in with an IC50 in assay [1] of over 0.25 µM. In assay [2], the EC50 is 0.431 µM.
In turn, `Cn1ccc(-c2cc(-c3c[nH]c(=O)[nH]c3=O)nn3ccnc23)n1` [Example 512, 5-(8-(1-methyl-1H-pyrazol-3-yl)imidazo[1,2-b]pyridazin-6-yl)pyrimidine-2,4(1H,3H)-dione] came in with a half-maximal inhibitory concentration (IC50) in assay [1] of over 0.25 µM. In assay [2], the midpoint of the response, the EC50, lay at 1.14 µM.
In assay [1], `CC1(C)CC(=O)N(c2cc(-c3c[nH]c(=O)[nH]c3=O)nn3ccnc23)C1` [Example 513, 5-(8-(4,4-dimethyl-2-oxopyrrolidin-1-yl)imidazo[1,2-b]pyridazin-6-yl)pyrimidine-2,4(1H,3H)-dione] showed an IC50 of over 0.25 µM. For the same compound, in assay [2], the EC50 is 0.934 µM.
As to `CC1(C)CN(c2cc(-c3c[nH]c(=O)[nH]c3=O)nn3ccnc23)C(=O)O1` [Example 514, 5-(8-(5,5-dimethyl-2-oxooxazolidin-3-yl)imidazo[1,2-b]pyridazin-6-yl)pyrimidine-2,4(1H,3H)-dione], the IC50 in assay [1] came out at 0.212 µM. The compound also showed an EC50 in assay [2] of 0.269 µM.
As for `CC1(C)CN(c2cc(-c3c[nH]c(=O)[nH]c3=O)nn3c(Cl)c(Cl)nc23)CC1(F)F` [Example 515, 5-(2,3-dichloro-8-(3,3-difluoro-4,4-dimethylpyrrolidin1-yl)imidazo[1,2-b]pyridazin-6-yl)pyrimidine-2,4(1H,3H)-dione], in assay [1], it took 0.00172 µM to reach half-maximal inhibition (IC50). Further, it took 0.228 µM to reach a half-maximal effect in assay [2] (EC50).
The like results for `C[C@H]1CN(c2cc(-c3c[nH]c(=O)[nH]c3=O)nn3ccnc23)CC1(F)F` [Example 516, (S)-5-(8-(3,3-difluoro-4-methylpyrrolidin-1-yl)imidazo[1,2-b]pyridazin-6-yl)pyrimidine-2,4(1H,3H)-dione] were, in that order, 0.00317 µM and 0.0128 µM.
`C[C@@H]1CN(c2cc(-c3c[nH]c(=O)[nH]c3=O)nn3ccnc23)CC1(F)F` [Example 517, (R)-5-(8-(3,3-difluoro-4-methylpyrrolidin-1-yl)imidazo[1,2-b]pyridazin-6-yl)pyrimidine-2,4(1H,3H)-dione]: in assay [1], the 50% inhibitory concentration (IC50) was 0.00523 µM. This compound also registered an EC50 in assay [2] of 0.0214 µM.
For the compound `C[C@H]1CN(c2cc(-c3c[nH]c(=O)[nH]c3=O)nn3c(F)cnc23)CC1(F)F` [Example 518, (S)-5-(8-(3,3-difluoro-4-methylpyrrolidin-1-yl)-3-fluoroimidazo[1,2-b]pyridazin-6-yl)pyrimidine-2,4(1H,3H)-dione], in assay [1], the IC50 was 0.0055 µM. Moreover, in assay [2], the midpoint of the response, the EC50, lay at 0.0196 µM.
As to `C[C@@H]1CN(c2cc(-c3c[nH]c(=O)[nH]c3=O)nn3c(F)cnc23)CC1(F)F` [Example 519, (R)-5-(8-(3,3-difluoro-4-methylpyrrolidin-1-yl)-3-fluoroimidazo[1,2-b]pyridazin-6-yl)pyrimidine-2,4(1H,3H)-dione], in assay [1], the 50% inhibitory concentration (IC50) worked out at 0.00658 µM. This compound displayed an EC50 in assay [2] of 0.0183 µM.
`C[C@H]1CN(c2cc(-c3c[nH]c(=O)[nH]c3=O)nn3c(Cl)cnc23)CC1(F)F` [Example 520, (S)-5-(3-chloro-8-(3,3-difluoro-4-methylpyrrolidin-1-yl)imidazo[1,2-b]pyridazin-6-yl)pyrimidine-2,4(1H,3H)-dione] showed a concentration for half-maximal inhibition (IC50) in assay [1] of 0.0438 µM. In addition, the midpoint of the response in assay [2], the EC50, lay at 0.421 µM.

(Values after US20240043427A1 (Gilead Sciences, Inc., priority 2020, published 2024).)
